The source of these data is PubChem BioAssay AID2816 (Southern Research Specialized Biocontainment Screening …, 2010).

pIC50: −log10 of the molar value. The source made the active and inactive calls.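 Rule for the calls: active = compound-induced drop in polymyxin IC50 in wild-type bacteria exceeding double the drop in a mutant lacking PhoP; inactive = the rest.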

A short description of assay [1]: polymyxin sensitization in S. Typhimurium, mechanism study for PhoP regulon inhibitor project, Salmonella typhimurium, WT and phoP- strains, set 2 (AID 2816). To be noted: S. Typhimurium polymyxin IC50 shift, OD600, 24 h, at 150 µM.
For assay [2], the system named is S. Typhimurium polymyxin IC50 shift, OD600, 24 h. The description is as above.
[3] abbreviates: measured here: phoP- strain counter-screen shift.
Setting [4] is: measured here: wild-type strain IC50 shift, stronger effect = higher value.
[5] abbreviates: WT polymyxin IC50 at 150 uM, stronger effect = lower value.

Turning to `O=C(Nc1ccc(Br)cc1)N1CCCN(Cc2ccccc2F)C1`, the polymyxin IC50 shift difference WT - phoP- in assay [1] (stronger effect = higher value) is -2.51 (inactive). The polymyxin IC50 shift in assay [1] (setting [3]) was 1.55; in assay [1] (setting [4]), -0.956. Further, the values for the polymyxin IC50 in assay [2] (setting [5]) and in assay [2] (phoP- polymyxin IC50 at 150 uM) were 4820 nM and 2620 nM, respectively.
The matching figures for `O=C1C2=C(Nc3ccccc3SC2c2ccsc2)c2ccccc21` (stereo not drawn): 2.14 (inactive), -0.359, 1.78, 2670 nM and 3000 nM.
With `COc1cccc(C2Sc3ccccc3NC3=C2C(=O)c2ccccc23)c1` (stereo not drawn), the polymyxin IC50 shift difference WT - phoP- in assay [1] (stronger effect = higher value) was -1.75 (inactive). Also, the results for the polymyxin IC50 shift in assay [1] (setting [3]) and in assay [1] (setting [4]) were 5.35 and 3.6, respectively. For the same compound, the polymyxin IC50 in assay [2] (setting [5]) amounted to 2110 nM.
As to `CCn1cc(C(=O)O)c(=O)c2cc(F)c(N3CCN(C(=S)Nc4ccccc4C(F)(F)F)CC3)cc21`, the polymyxin IC50 shift difference WT - phoP- in assay [1] (stronger effect = higher value) was -3.38 (inactive). The polymyxin IC50 shift came to 3.42 in assay [1] (setting [3]) and 0.032 in assay [1] (setting [4]). In addition, the polymyxin IC50 in assay [2] (setting [5]) is 2590 nM; in assay [2] (phoP- polymyxin IC50 at 150 uM), 2950 nM.
What is called pIC50 is −log10 of the IC50, conventionally taken in molar units. In the case of `COc1ccc(CNC(=S)Nc2ccncc2)cc1`, the polymyxin IC50 shift in assay [1] (setting [3]) was 1.46; in assay [1] (setting [4]), 10.1. Besides, the pIC50 in assay [2] is 4.12. Also, in assay [2] (phoP- polymyxin IC50 at 150 uM), the polymyxin IC50 turned out to be 4420 nM.
As for `O=C1C2=C(Nc3ccccc3SC2c2ccc(I)cc2)c2ccccc21` (stereo not drawn), the polymyxin IC50 shift difference WT - phoP- in assay [1] (stronger effect = higher value) is 1.63 (inactive). For the same compound, the polymyxin IC50 shift worked out at 1.03 in assay [1] (setting [3]) and 2.66 in assay [1] (setting [4]). Further, the polymyxin IC50 in assay [2] (setting [5]) turned out to be 2470 nM; in assay [2] (phoP- polymyxin IC50 at 150 uM), 2890 nM.
